Measurements taken from article PMC6017357, “In Vitro Inhibitory Effects of Synthetic Cannabinoid EAM-2201 on Cytochrome P450 and UDP-Glucuronosyltransferase Enzyme Activities in Human Liver Microsomes” (Molecules : A Journal of Synthetic Chemistry and Natural …, 2018).

Biological target: T1, CYP2B6 (Homo sapiens, UniProt P20813)
T1 construct: from tissue; host or cells: ultrapooled human liver microsomes
T1 sequence (P20813 1-491): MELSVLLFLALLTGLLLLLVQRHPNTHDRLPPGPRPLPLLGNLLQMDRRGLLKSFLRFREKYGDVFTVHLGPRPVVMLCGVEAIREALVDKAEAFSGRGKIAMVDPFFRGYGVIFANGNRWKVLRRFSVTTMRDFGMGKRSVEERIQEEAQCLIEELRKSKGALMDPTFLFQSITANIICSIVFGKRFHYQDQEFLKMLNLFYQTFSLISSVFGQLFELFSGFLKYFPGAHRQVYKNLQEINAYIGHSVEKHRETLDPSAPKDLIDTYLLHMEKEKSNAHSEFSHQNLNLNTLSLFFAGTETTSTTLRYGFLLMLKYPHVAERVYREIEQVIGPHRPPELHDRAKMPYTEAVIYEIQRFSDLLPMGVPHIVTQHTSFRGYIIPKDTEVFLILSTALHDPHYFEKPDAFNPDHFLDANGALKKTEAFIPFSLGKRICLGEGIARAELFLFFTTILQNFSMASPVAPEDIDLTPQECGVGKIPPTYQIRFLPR
Test: CYP2B6-mediated bupropion hydroxylation in pooled human liver microsomes
Type: in vitro ADME
Conditions: up to 50 µM, without 30-min preincubation
Experimental: The inhibitory effects (IC50 values) of EAM-2201 on CYP2B6-catalyzed bupropion 4-hydroxylase activity were determined in ultrapooled human liver microsomes using LC-MS/MS [41]. Each incubation mixture was prepared in a total volume of 100 µL as follows: pooled human liver microsomes (5.2 pmol CYP), 1.0 mM NADPH, 10 mM magnesium chloride, 50 mM potassium phosphate buffer (pH 7.4), various concentrations of EAM-2201 in DMSO (final 0.1–50 µM, 0.5% DMSO) and CYP2B6-selective substrate and 50 µM bupropion. After a 3-min preincubation at 37 °C, reactions were initiated by adding NADPH, followed by incubation for 15 min at 37 °C in a shaking water bath. […] Aliquots (5 µL) of the diluted supernatants were analyzed by LC-MS/MS. […]
The metabolites formed from CYP substrates were simultaneously quantified using our previously described LC-MS/MS method. […] Quantification was performed by selected reaction monitoring (SRM) of the [M + H]^+ ion and the related product ion for each metabolite: acetaminophen, 152.1 > 110.3; N-desethylamodiaquine, 328.1 > 283.0; 7-hydroxycoumarin, 163.0 > 107.2; 4-hydroxybupropion, 256.1 > 238.0; 4′-hydroxydiclofenac, 312.0 > 231.1; 4′-hydroxy-mephenytoin, 235.1 > 150.1; 1′-hydroxybufuralol, 278.1 > 186.1; 1′-hydroxymidazolam, 341.9 > 324.0; ^13C2,^15N-acetaminophen, 155.1 > 111.2; and d9-1′-hydroxybufuralol, 287.2 > 187.0. […]

Compound: CCc1ccc(C(=O)c2cn(CCCCCF)c3ccccc23)c2ccccc12 [EAM-2201, (4-ethyl-1-naphthalenyl)[1-(5-fluoropentyl)-1H-indol-3-yl]-methanone]
- inhibition of CYP2B6-mediated bupropion hydroxylation: negligibly inhibited
